Experimental findings from patent publication US10093611B2, “Benzocycloalkenes as antifungal agents” (Bayer Intellectual Property GmbH, priority 2010, dated 2018) are described below.

The test system of one experiment is Puccinia triticina. In words: In vivo preventive test on Puccinia triticina (wheat). As to conditions: 500 ppm of active ingredient, evaluated 8 days after inoculation. The protocol: EXAMPLE E: IN VIVO PREVENTIVE TEST ON PUCCINIA TRITICINA (WHEAT)
Solvent: 49 parts by weight of N,N-dimethylacetamide
Emulsifier: 1 part by weight of alkylaryl polyglycol ether
To produce a suitable preparation of active compound, 1 part by weight of active compound or active compound combination is mixed with the stated amounts of solvent and emulsifier, and the concentrate is diluted with water to the desired concentration.
To test for preventive activity, young plants are sprayed with the preparation of active compound or active compound combination at the stated rate of application.
After the spray coating has been dried, the plants are sprayed with a spore suspension of Puccinia triticina. The plants remain for 48 hours in an incubation cabinet at approximately 20° C. and a relative atmospheric humidity of approximately 100%.
The plants are placed in the greenhouse at a temperature of approximately 20° C. and a relative atmospheric humidity of approximately 80%.
The test is evaluated 8 days after the inoculation. 0% means an efficacy which corresponds to that of the untreated control, while an efficacy of 100% means that no disease is observed.
Under these conditions, high (at least 85%) to total protection is observed at a dose of 500 ppm of active ingredient with the following compounds from table E: […]

The next experiment concerns Pyrenophora teres. In words: In vivo preventive test on Pyrenophora teres (barley). As to conditions: 500 ppm of active ingredient, evaluated 7-9 days after inoculation. Here is the method:
EXAMPLE F: IN VIVO PREVENTIVE TEST ON PYRENOPHORA TERES (BARLEY) Solvent: 49 parts by weight of N,N-dimethylformamide Emulsifier: 1 part by weight of Alkylarylpolyglycolether To produce a suitable preparation of active compound, 1 part by weight of active compound is mixed with the stated amounts of solvent and emulsifier, and the concentrate is diluted with water to the desired concentration. To test for preventive activity, young plants are sprayed with the preparation of active compound at the stated rate of application. One day after this treatment, the plants are inoculated with an aqueous spore suspension of Pyrenophora teres. The plants remain for 48 hours in an incubation cabinet at 22° C. and a relative atmospheric humidity of 100%. Then the plants are placed in a greenhouse at a temperature of approximately 20° C. and a relative atmospheric humidity of approximately 80%. The test is evaluated 7-9 days after the inoculation. 0% means an efficacy which corresponds to that of the untreated control while an efficacy of 100% means that no disease is observed. Under these conditions, high (at least 90%) to total protection is observed at a dose of 500 ppm of active ingredient with the following compounds from table F: […]

Experiment [1] has as its system Fusarium nivale (var. majus). In words: In vivo curative test on Fusarium nivale (var. majus) (wheat). Particulars: 500 ppm of active ingredient, evaluated 5 days after inoculation. Here is the method:
EXAMPLE C: IN VIVO CURATIVE TEST ON FUSARIUM NIVALE (VAR. MAJUS) (WHEAT) Solvent: 49 parts by weight of N,N-dimethylacetamide Emulsifier: 1 part by weight of alkylaryl polyglycol ether To produce a suitable preparation of active compound, 1 part by weight of active compound or active compound combination is mixed with the stated amounts of solvent and emulsifier, and the concentrate is diluted with water to the desired concentration. To test for curative activity, young plants are slightly injured by using a sandblast and afterwards they are sprayed with a conidia suspension of Fusarium nivale (var. majus) and placed for 24 hours in a greenhouse under a translucent incubation cabinet at a temperature of approximately 10° C. and a relative atmospheric humidity of approximately 100% and are subsequently sprayed with the preparation of active compound at the stated rate of application. After the spray coating has been dried, the plants remain in the greenhouse under translucent incubation cloches at a temperature of approximately 10° C. and a relative atmospheric humidity of approximately 100%. The test is evaluated 5 days after the inoculation. 0% means an efficacy which corresponds to that of the untreated control, while an efficacy of 100% means that no disease is observed. Under these conditions, total protection is observed at a dose of 500 ppm of active ingredient with the following compounds from table C: […]

The subject of the next experiment is Septoria tritici. The experiment in a line: In vivo preventive test on Septoria tritici (wheat). Particulars: 500 ppm of active ingredient, evaluated 21 days after inoculation. Here is the method: EXAMPLE G: IN VIVO PREVENTIVE TEST ON SEPTORIA TRITICI (WHEAT) Solvent: 49 parts by weight of N,N-dimethylacetamide Emulsifier: 1 part by weight of alkylaryl polyglycol ether To produce a suitable preparation of active compound, 1 part by weight of active compound or active compound combination is mixed with the stated amounts of solvent and emulsifier, and the concentrate is diluted with water to the desired concentration. To test for preventive activity, young plants are sprayed with the preparation of active compound or active compound combination at the stated rate of application. After the spray coating has dried on, the plants are sprayed with a spore suspension of Septoria tritici. The plants remain for 48 hours in an incubation cabinet at approximately 20° C. and a relative atmospheric humidity of approximately 100% and then 60 hours at approximately 15° C. in a translucent incubation cabinet at a relative atmospheric humidity of approximately 100%. The plants are placed in a greenhouse at a temperature of approximately 15° C. and a relative atmospheric humidity of approximately 80%. The test is evaluated 21 days after the inoculation. 0% means an efficacy which corresponds to that of the control, while an efficacy of 100% means that no disease is observed. Under these conditions, total protection is observed at a dose of 500 ppm of active ingredient with the following compounds from table G: […]

A further experiment concerns Leptosphaeria nodorum. The experiment in a line: In vivo preventive test on Leptosphaeria nodorum (wheat). As to conditions: 500 ppm of active ingredient, evaluated 8 days after inoculation. Here is the method:
EXAMPLE D: IN VIVO PREVENTIVE TEST ON LEPTOSPHAERIA NODORUM (WHEAT) Solvent: 49 parts by weight of N,N-dimethylacetamide Emulsifier: 1 part by weight of alkylaryl polyglycol ether To produce a suitable preparation of active compound, 1 part by weight of active compound or the compound combination is mixed with the stated amounts of solvent and emulsifier, and the concentrate is diluted with water to the desired concentration. To test for protective activity, young plants are sprayed with a preparation of active compound or active compound combination at the stated rate of application. After the spray coating has dried on, the plants are sprayed with a spore suspension of Leptosphaeria nodorum. The plants remain for 48 hours in an incubation cabinet at 20° C. and a relative atmospheric humidity of 100%. The plants are placed in a greenhouse at a temperature of approximately 22° C. and a relative atmospheric humidity of approximately 80%. The test is evaluated 8 days after the inoculation. 0% means an efficacy which corresponds to that of the control, while an efficacy of 100% means that no disease is observed. Under these conditions, good (at least 75%) to total protection is observed at a dose of 500 ppm of active ingredient with the following compounds from table D: Under the same conditions, excellent protection (greater than 94%) is observed at a dose of 500 ppm of active ingredient with compound 2, whereas poor protection (less than 30%) is observed with the isosteric analogue compound CMP1 claimed in WO-2009/016218 as in table D2.

`Cc1nn(C)c(F)c1C(=O)N(C1CC1)C(C)C1Cc2ccccc2C1` (stereo not drawn) [Example 11]: the Efficacy (in the experiment on Puccinia triticina; in the experiment with Pyrenophora teres; in experiment [1]; with Septoria tritici; in the experiment with Leptosphaeria nodorum) was 100% in each case.

`CCc1nn(C)c(F)c1C(=O)N(C1CC1)C(C)C1Cc2ccccc2C1` (stereo not drawn) [Example 12]: the Efficacy (in the experiment on Puccinia triticina; with Pyrenophora teres; in experiment [1]; in the experiment with Septoria tritici; in the experiment on Leptosphaeria nodorum) was 100% each time.

On to `CC(C1Cc2ccccc2C1)N(C(=O)c1cn(C)nc1C(F)F)C1CC1` (stereo not drawn) [Example 13], for which the Efficacy (with Puccinia triticina; in the experiment on Pyrenophora teres; in experiment [1]; with Septoria tritici; in the experiment on Leptosphaeria nodorum) was 100% each time.

Regarding `CC(C1Cc2ccccc2C1)N(C(=O)c1c(C(F)F)nn(C)c1F)C1CC1` (stereo not drawn) [Example 14, N-cyclopropyl-3-(difluoromethyl)-N-[1-(indan-2-yl)ethyl]-5-fluoro-1-methyl-1H-pyrazole-4-carboxamide], the Efficacy (in the experiment with Puccinia triticina; in the experiment with Pyrenophora teres; in experiment [1]; with Septoria tritici; with Leptosphaeria nodorum) was 100% throughout.

As to `CC(C1CCc2ccccc2C1)N(C(=O)c1c(C(F)F)nn(C)c1F)C1CC1` (stereo not drawn) [Example 16], the Efficacy in the experiment on Puccinia triticina was 100%; in the experiment with Pyrenophora teres it was 100%; in experiment [1] it was 100%; in the experiment with Septoria tritici it was 100%; with Leptosphaeria nodorum it was 86%.

As to `CCC(C1CCc2ccccc2C1)N(C(=O)c1c(C(F)F)nn(C)c1F)C1CC1` (stereo not drawn) [Example 17], the Efficacy in the experiment with Puccinia triticina is recorded as 88%; with Pyrenophora teres it was 100%; in experiment [1] it was 100%; in the experiment with Septoria tritici, 100%; in the experiment on Leptosphaeria nodorum, 80%.
